We go through eight compounds from ChEMBL document CHEMBL5550105, “Progress on synthesis and structure-activity relationships of lamellarins over the past decade” (Eur J Med Chem, 2024).

The test system of one experiment is MCF7. The experiment is described as follows: Antiproliferative activity against human MCF7 cells assessed as reduction in cell growth incubated for 48 hrs by MTT assay. Format: functional, cell-based. Particulars: MCF7, 48 h. (In general: Tetrazolium dyes change colour on reduction, which living cells bring about.)
For the next experiment, the system named is HT-29. Kind of experiment: Growth inhibition of human HT-29 cells measured for 72 hrs by SRB assay. Format: functional. In general terms: In SRB staining, fixed cells bind dye roughly in proportion to their protein.
The next experiment has as its system HeLa. The experiment is described as follows: Cytotoxicity against human HeLa cells assessed as reduction in cell viability measured for 48 hrs by crystal violet staining based analysis. Format: functional.
In experiment [1] the target is ATP-dependent translocase ABCB1 (Homo sapiens, UniProt P08183). Kind of experiment: Inhibition of p-glycoprotein (unknown origin) expressed in MDCK-MDR1 cells. It is filed as cell-based.
Chain of ATP-dependent translocase ABCB1 (P08183 whole entry): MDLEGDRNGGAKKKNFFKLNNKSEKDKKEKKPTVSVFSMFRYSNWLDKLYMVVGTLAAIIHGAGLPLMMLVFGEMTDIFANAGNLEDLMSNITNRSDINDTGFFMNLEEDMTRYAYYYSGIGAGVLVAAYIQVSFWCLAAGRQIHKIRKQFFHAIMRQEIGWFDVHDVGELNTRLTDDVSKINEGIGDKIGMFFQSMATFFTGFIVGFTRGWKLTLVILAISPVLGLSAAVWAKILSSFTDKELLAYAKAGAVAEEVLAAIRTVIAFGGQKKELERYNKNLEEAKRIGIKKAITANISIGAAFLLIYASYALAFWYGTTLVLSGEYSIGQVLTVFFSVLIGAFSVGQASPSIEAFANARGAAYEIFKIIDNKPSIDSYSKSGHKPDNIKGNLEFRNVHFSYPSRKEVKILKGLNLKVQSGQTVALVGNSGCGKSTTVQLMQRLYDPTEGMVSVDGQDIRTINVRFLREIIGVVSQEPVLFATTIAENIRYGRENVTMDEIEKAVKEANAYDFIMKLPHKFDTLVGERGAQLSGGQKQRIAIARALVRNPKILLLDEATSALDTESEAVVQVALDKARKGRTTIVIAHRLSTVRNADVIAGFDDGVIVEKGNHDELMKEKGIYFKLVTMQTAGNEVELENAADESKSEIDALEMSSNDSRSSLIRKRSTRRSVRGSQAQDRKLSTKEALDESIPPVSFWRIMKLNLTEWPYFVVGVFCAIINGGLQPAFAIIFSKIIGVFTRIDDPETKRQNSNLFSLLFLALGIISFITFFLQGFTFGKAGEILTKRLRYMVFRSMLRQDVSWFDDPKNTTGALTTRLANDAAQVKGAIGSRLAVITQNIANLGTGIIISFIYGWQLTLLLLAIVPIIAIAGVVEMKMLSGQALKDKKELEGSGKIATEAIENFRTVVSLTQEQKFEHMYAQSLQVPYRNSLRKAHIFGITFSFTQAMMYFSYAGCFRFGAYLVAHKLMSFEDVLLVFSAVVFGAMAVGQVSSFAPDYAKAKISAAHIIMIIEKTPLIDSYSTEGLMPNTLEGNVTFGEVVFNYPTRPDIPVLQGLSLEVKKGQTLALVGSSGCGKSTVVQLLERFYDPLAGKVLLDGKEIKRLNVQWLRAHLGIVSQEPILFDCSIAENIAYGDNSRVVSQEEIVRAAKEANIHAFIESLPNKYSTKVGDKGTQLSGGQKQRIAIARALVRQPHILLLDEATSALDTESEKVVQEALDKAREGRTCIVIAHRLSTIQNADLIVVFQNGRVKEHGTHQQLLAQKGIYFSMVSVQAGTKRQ
The target in a further experiment is Acetylcholinesterase (Homo sapiens, UniProt P22303). The experiment is described as follows: Inhibition of human recombinant AChE using acetylthiocholine iodide substrate incubated for 5 mins by Ellman's spectrophotometric analysis. Background: In Ellman's method for cholinesterases, released thiocholine reacts with DTNB.
Chain of Acetylcholinesterase (P22303 whole entry): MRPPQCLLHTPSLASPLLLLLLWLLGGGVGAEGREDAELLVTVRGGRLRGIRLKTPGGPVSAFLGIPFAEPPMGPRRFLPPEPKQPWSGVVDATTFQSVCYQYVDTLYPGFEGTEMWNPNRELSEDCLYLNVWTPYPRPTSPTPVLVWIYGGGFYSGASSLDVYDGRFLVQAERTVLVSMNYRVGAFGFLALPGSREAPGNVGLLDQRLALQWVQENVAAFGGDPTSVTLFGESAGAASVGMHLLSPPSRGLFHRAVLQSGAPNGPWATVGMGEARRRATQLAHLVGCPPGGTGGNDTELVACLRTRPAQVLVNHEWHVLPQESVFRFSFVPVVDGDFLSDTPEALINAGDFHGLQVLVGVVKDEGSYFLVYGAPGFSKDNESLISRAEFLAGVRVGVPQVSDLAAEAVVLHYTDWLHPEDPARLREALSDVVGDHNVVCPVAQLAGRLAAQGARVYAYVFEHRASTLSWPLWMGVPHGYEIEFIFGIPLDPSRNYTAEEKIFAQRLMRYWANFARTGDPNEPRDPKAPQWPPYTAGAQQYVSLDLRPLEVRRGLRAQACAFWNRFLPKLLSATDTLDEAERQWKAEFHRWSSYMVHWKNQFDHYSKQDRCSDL
For another experiment, the system named is DU-145. Kind of experiment: Growth inhibition of human DU-145 cells measured for 72 hrs by SRB assay. Format: functional.

One may read the IC50 as the concentration that gives 50% inhibition. Regarding `Cc1ccc(-c2nc3c(=O)oc4ccccc4c3c3ccoc23)cc1`, the IC50 in the experiment on MCF7 turned out to be 6830 nM. The GI50 is the concentration that inhibits growth by half. As for `COCCOCCOCC(=O)Oc1ccc(-c2c3c4cc(OC)c(OC(=O)COCCOCCOC)cc4oc(=O)c3n3ccc4cc(O)c(OC)cc4c23)cc1OC`, the GI50 in the experiment with HT-29 was 1280 nM. Take `COc1cc(-c2c3c4cc(OC)c(O)cc4[nH]c(=O)c3n3ccc4cc(O)c(OC)cc4c23)ccc1O`: in the experiment on HeLa, the IC50 was found to be 317 nM. Consider `CCOc1ccc(-c2c(C=O)c(-c3ccco3)n3c2-c2cc(OCC)c(OCC)cc2CC3)cc1OCC`, for which, in experiment [1], half-maximal inhibition (IC50) required 190 nM. For the compound `CCOc1cc2c(cc1OCC)-c1c(-c3ccc(Cl)cc3)c(/C=N/c3ccc(/N=C/c4c(-c5ccc(Cl)cc5)c5n(c4-c4ccccc4)CCc4cc(OC)c(OC)cc4-5)cc3)c(-c3ccccc3)n1CC2`, the half-inhibitory concentration (IC50) at Acetylcholinesterase is 4690 nM. `COc1cc(-c2c3c4cc(OC)c(OC(=O)[C@H](N)C(C)C)cc4oc(=O)c3n3ccc4cc(OC(=O)[C@@H](N)C(C)C)c(OC)cc4c23)ccc1OC(=O)[C@@H](N)C(C)C` yielded a GI50 in the experiment with DU-145 of 10.8 nM. Turning to `CCOc1cc2c(cc1OCC)-c1c(-c3ccc(F)cc3)c(/C=N/c3ccc(O)cc3)c(-c3ccccc3)n1CC2`, the IC50 in experiment [1] stood at 1010 nM. Take `COc1cc(-c2c3c4cc(OC)c(O)cc4oc(=O)c3n3ccc4cc(O)c(OC)cc4c23)ccc1O` [LAMELLARIN D]: the results for the GI50 in the experiment with DU-145 and with HT-29 were 10.9 nM and 3000 nM, respectively.
